Reference: ChEMBL document CHEMBL1201862, “PubChem BioAssay data set” (2004)
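Assay format: 96-well plates, 48-hour exposure. Abbreviation: GI50, concentration required for 50% inhibition of growth.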 Active and inactive are the calls of the source. Cut-off read from the data, not from the text of the source: active = GI50 up to about 1.1 µM and inactive = higher.

Tests used:
Assay in all cases: NCI tumour cell line growth inhibition, 48 h
[1] = system: HOP-92
[2] = system: CAKI-1
[3] = system: HCC 2998
[4] = system: MDA-MB-435
[5] = system: OVCAR-8
[6] = system: SF-539
[7] = system: SK-MEL-5
[8] = system: Hs-578T
[9] = system: 786-0
[10] = system: EKVX
[11] = system: DU-145
[12] = system: KM12
[13] = system: SR
[14] = system: HCT-15
[15] = system: UACC-62
[16] = system: TK-10
[17] = system: A549
[18] = system: LOX IMVI
[19] = system: Malme-3M
[20] = system: IGROV-1
[21] = system: NCI-H522
[22] = system: SK-OV-3
[23] = system: T47D
[24] = system: UACC-257
[25] = system: CCRF-CEM
[26] = system: BT-549
[27] = system: UO-31
[28] = system: HL-60
[29] = system: ACHN
[30] = system: SN12C
[31] = system: A498
[32] = system: NCI/ADR-RES
[33] = system: MCF7
[34] = system: OVCAR-4
[35] = system: HOP-62
[36] = system: HCT-116
[37] = system: NCI-H23
[38] = system: RPMI-8226
[39] = system: OVCAR-3
[40] = system: SW-620
[41] = system: SK-MEL-28
[42] = system: SNB-19
[43] = system: COLO 205
[44] = system: MOLT-4
[45] = system: SNB-75
[46] = system: HT-29
[47] = system: PC-3
[48] = system: NCI-H460
[49] = system: MDA-MB-231
[50] = system: SF-268
[51] = system: K562
[52] = system: M14
[53] = system: NCI-H226
[54] = system: RXF 393
[55] = system: MDA-N
[56] = system: SF-295
[57] = system: OVCAR-5
[58] = system: U-251
[59] = system: SK-MEL-2

`CC1C2CC(C(S(=O)(=O)N3CCOCC3)/C2=N\O)C1(C)C` (centres undefined) was tested, and the GI50 [1] was > 100 µM (inactive), the GI50 [2] was > 100 µM (inactive) and the GI50 [3] was > 100 µM (inactive). The GI50 [4] was > 100 µM (inactive), the GI50 [5] was > 100 µM (inactive) and the GI50 [6] was > 100 µM (inactive). The GI50 [7] was > 100 µM (inactive), the GI50 [8] was > 100 µM (inactive) and the GI50 [9] was > 100 µM (inactive). For the same compound, the GI50 [10] was > 100 µM (inactive), the GI50 [11] was > 100 µM (inactive) and the GI50 [12] was > 100 µM (inactive). The GI50 [13] was > 100 µM (inactive), the GI50 [14] was > 100 µM and the GI50 [15] was > 100 µM (inactive). The GI50 [16] was > 100 µM (inactive), the GI50 [17] was > 100 µM (inactive) and the GI50 [18] was > 100 µM (inactive). The GI50 [19] was > 100 µM (inactive), the GI50 [20] was > 100 µM (inactive) and the GI50 [21] was > 100 µM (inactive). The GI50 [22] was > 100 µM (inactive), the GI50 [23] was > 100 µM (inactive) and the GI50 [24] was > 100 µM (inactive). For the same compound, the GI50 [25] was > 100 µM (inactive), the GI50 [26] was > 100 µM (inactive) and the GI50 [27] was > 100 µM (inactive). For the same compound, the GI50 [28] was > 100 µM (inactive), the GI50 [29] was > 100 µM (inactive) and the GI50 [30] was > 100 µM (inactive). The GI50 [31] was > 100 µM (inactive), the GI50 [32] was > 100 µM (inactive) and the GI50 [33] was > 100 µM (inactive). The GI50 [34] was > 100 µM (inactive), the GI50 [35] was > 100 µM (inactive) and the GI50 [36] was > 100 µM (inactive). For the same compound, the GI50 [37] was > 100 µM (inactive), the GI50 [38] was > 100 µM (inactive) and the GI50 [39] was > 100 µM (inactive). For the same compound, the GI50 [40] was > 100 µM (inactive), the GI50 [41] was > 100 µM (inactive) and the GI50 [42] was > 100 µM (inactive). For the same compound, the GI50 [43] was > 100 µM (inactive), the GI50 [44] was > 100 µM (inactive) and the GI50 [45] was > 100 µM (inactive). The GI50 [46] was > 100 µM (inactive), the GI50 [47] was > 100 µM (inactive) and the GI50 [48] was > 100 µM (inactive). For the same compound, the GI50 [49] was > 100 µM (inactive), the GI50 [50] was > 100 µM (inactive) and the GI50 [51] was > 100 µM (inactive). For the same compound, the GI50 [52] was > 100 µM (inactive), the GI50 [53] was > 100 µM (inactive) and the GI50 [54] was > 100 µM (inactive). For the same compound, the GI50 [55] was > 100 µM (inactive) and the GI50 [56] was > 100 µM (inactive).
`O=c1c(C(c2cccc(C(c3c(O)oc4ccccc4c3=O)c3c(O)oc4ccccc4c3=O)c2)c2c(O)oc3ccccc3c2=O)c(O)oc2ccccc12` was tested, and the GI50 [1] was 27.7 µM (inactive), the GI50 [2] was 16.9 µM (inactive) and the GI50 [3] was 15.6 µM (inactive). The GI50 [4] was 86.9 µM (inactive), the GI50 [5] was 21.1 µM (inactive) and the GI50 [6] was 19.8 µM (inactive). For the same compound, the GI50 [7] was 13.2 µM (inactive), the GI50 [8] was 25.5 µM (inactive) and the GI50 [9] was 17.7 µM (inactive). For the same compound, the GI50 [57] was > 100 µM (inactive), the GI50 [10] was 67.3 µM (inactive) and the GI50 [11] was 39.4 µM (inactive). For the same compound, the GI50 [12] was 30.5 µM (inactive), the GI50 [13] was 28.4 µM (inactive) and the GI50 [14] was 63.8 µM. For the same compound, the GI50 [15] was 29 µM (inactive), the GI50 [16] was > 100 µM (inactive) and the GI50 [17] was 60.3 µM (inactive). The GI50 [18] was 18.7 µM (inactive), the GI50 [20] was 34 µM (inactive) and the GI50 [21] was 14.5 µM (inactive). The GI50 [22] was 18.2 µM (inactive), the GI50 [23] was 24.3 µM (inactive) and the GI50 [24] was 69 µM (inactive). The GI50 [25] was 32.4 µM (inactive), the GI50 [26] was 27.9 µM (inactive) and the GI50 [28] was 21.7 µM (inactive). The GI50 [29] was 36.6 µM (inactive), the GI50 [30] was 22.1 µM (inactive) and the GI50 [31] was > 100 µM (inactive). The GI50 [32] was > 100 µM (inactive), the GI50 [33] was 13.6 µM (inactive) and the GI50 [35] was 30.3 µM (inactive). For the same compound, the GI50 [36] was 25.1 µM (inactive), the GI50 [37] was 22.8 µM (inactive) and the GI50 [38] was 33.2 µM (inactive). For the same compound, the GI50 [39] was 35.3 µM (inactive), the GI50 [40] was > 100 µM (inactive) and the GI50 [41] was > 100 µM (inactive). The GI50 [58] was 26.3 µM (inactive), the GI50 [43] was 86.3 µM (inactive) and the GI50 [59] was > 100 µM (inactive). For the same compound, the GI50 [44] was 29.2 µM (inactive), the GI50 [45] was 3.73 µM (inactive) and the GI50 [46] was 36.9 µM (inactive). The GI50 [47] was 37.9 µM (inactive), the GI50 [48] was 75.2 µM (inactive) and the GI50 [49] was 20.8 µM (inactive). The GI50 [50] was 28.4 µM (inactive), the GI50 [51] was 27.9 µM (inactive) and the GI50 [52] was > 100 µM (inactive). For the same compound, the GI50 [53] was 44.7 µM (inactive), the GI50 [54] was > 100 µM (inactive) and the GI50 [55] was 66.4 µM (inactive). For the same compound, the GI50 [56] was 41.5 µM (inactive).
For `CCOC(=O)C1=NN(c2ccccc2)C(=O)/C1=C\NC(=S)C(N)=S`, the GI50 [1] was 39.1 µM (inactive), the GI50 [2] was 38.1 µM (inactive) and the GI50 [3] was 43.4 µM (inactive). For the same compound, the GI50 [4] was 33.8 µM (inactive), the GI50 [5] was 45.5 µM (inactive) and the GI50 [6] was 23.2 µM (inactive). For the same compound, the GI50 [7] was 19.6 µM (inactive), the GI50 [8] was 32.7 µM (inactive) and the GI50 [9] was 20.7 µM (inactive). For the same compound, the GI50 [57] was 38.6 µM (inactive), the GI50 [10] was 27.2 µM (inactive) and the GI50 [11] was 50.9 µM (inactive). The GI50 [12] was 70.6 µM (inactive), the GI50 [13] was 35.2 µM (inactive) and the GI50 [14] was 34.1 µM. For the same compound, the GI50 [15] was 29.3 µM (inactive), the GI50 [16] was 36.2 µM (inactive) and the GI50 [17] was 66.1 µM (inactive). The GI50 [18] was 37.8 µM (inactive), the GI50 [19] was 45.3 µM (inactive) and the GI50 [20] was 42.6 µM (inactive). The GI50 [21] was 16.6 µM (inactive), the GI50 [22] was 75.7 µM (inactive) and the GI50 [23] was 13.1 µM (inactive). For the same compound, the GI50 [24] was 68.5 µM (inactive), the GI50 [25] was 34.1 µM (inactive) and the GI50 [26] was 35 µM (inactive). For the same compound, the GI50 [27] was 19.2 µM (inactive), the GI50 [28] was 38.9 µM (inactive) and the GI50 [29] was 21.5 µM (inactive). The GI50 [30] was 37.8 µM (inactive), the GI50 [31] was > 100 µM (inactive) and the GI50 [32] was > 100 µM (inactive). For the same compound, the GI50 [33] was 36.1 µM (inactive), the GI50 [34] was 40.9 µM (inactive) and the GI50 [35] was > 100 µM (inactive). The GI50 [36] was 20.5 µM (inactive), the GI50 [37] was 87.1 µM (inactive) and the GI50 [39] was 38.5 µM (inactive). The GI50 [40] was 38.5 µM (inactive), the GI50 [41] was 39.8 µM (inactive) and the GI50 [42] was 64.9 µM (inactive). For the same compound, the GI50 [58] was 42.3 µM (inactive), the GI50 [43] was 28.1 µM (inactive) and the GI50 [59] was 43.1 µM (inactive). The GI50 [44] was 26.4 µM (inactive), the GI50 [45] was 47.3 µM (inactive) and the GI50 [46] was 41.8 µM (inactive). The GI50 [47] was 47.5 µM (inactive), the GI50 [48] was 49.3 µM (inactive) and the GI50 [49] was 65.2 µM (inactive). For the same compound, the GI50 [50] was 38.5 µM (inactive), the GI50 [51] was 38 µM (inactive) and the GI50 [52] was 26.5 µM (inactive). The GI50 [53] was 54.5 µM (inactive), the GI50 [54] was 29.2 µM (inactive) and the GI50 [55] was 32.8 µM (inactive). For the same compound, the GI50 [56] was 74.6 µM (inactive).
